Read-outs that look alike come from different tables or passages of the source.
Columns and labels:
[1] = test system: Hepatitis B Virus; assay: Anti-Hepatitis B Virus activity; format: cell-based
Experimental: Compounds were tested for anti-Hepatitis B Virus activity according to the method described by Jansen, R. et al., Antimicrobial Agents and Chemotherapy, Vol. 37, No. 3, pp. 441–447, 1993, and results are shown in the table below.

[2] = format: in vitro ADME; details: normal heparized human plasma, 37° C.
Experimental: Each compound was incubated in normal heparized human plasma at 37° C. At selected time points duplicate samples were removed and deproteinated by acetonitrile extraction. Drug concentrations were then determined by LC/MS/MS analysis using standard methods.

[3] = Acid stability, acid-mediated hydrolytic decomposition simulating stomach conditions (HPLC); format: physicochemical; details: dilute hydrochloric acid pH 1, 37° C., initial 0.3 mg/ml
Experimental: Compounds according to the invention were tested for their stability towards acid-mediated hydrolytic decomposition employing a test designed to simulate stomach conditions. Each compound was incubated at an initial concentration of 0.3 mg/ml in dilute hydrochloric acid at pH 1 at 37° C. HPLC was run immediately for t=0 and at intervals up to approximately 24 hours.

Row | SMILES | melting point | IC50 ([1]; Hepatitis B virus; read-out: IC50 (mM) vs. HBV) | Selectivity Index ([1]; vs. HBV) | Half-life [2] | half-life, acid stability [3] | IC50 ([1]; Hepatitis B virus, read-out: IC50 (mM) vs. HBV)
1 | Nc1ncnc2c1ncn2[C@@H]1C=C[C@H](CO)C1 (relative stereo) [Example 1, (1R,cis)-4-(6-Amino-9H-purin-9-yl)-2-cyclopentene-1-methanol] | 195 to 200 °C | 980 nM | >200 | – | – | –
2 | Nc1ncnc2c1ncn2[C@@H]1C=C[C@H](COP(=O)([O-])N[C@@H](Cc2ccccc2)C(=O)[O-])C1.[Na+].[Na+] (relative stereo) [Example 8] | – | – | >1800 | – | – | –
3 | CCOC(=O)[C@H](Cc1ccccc1)NP(=O)(OC[C@H]1C=C[C@@H](n2cnc3c(N)ncnc32)C1)Oc1ccccc1 (relative stereo) [Example 7] | – | – | 5000 | 53 h | 76 h | –
4 | COC(=O)C(C)(C)NP(=O)(OC[C@H]1C=C[C@@H](n2cnc3c(N)ncnc32)C1)Oc1ccccc1 (stereo partly drawn) [Example 9] | – | – | 5000 | – | – | 2 nM
